Reference: patent US20240025862A1, “SUBSTITUTED N-PHENYLURACILS AND SALTS THEREOF, AND USE THEREOF AS HERBICIDAL ACTIVE SUBSTANCES” (Bayer Aktiengesellschaft, priority 2020, published 2024)

What was measured:
Assay type in all cases: in vivo
[1] = test system: Abutilon theophrasti (ABUTH); test: Post-emergence herbicidal action, greenhouse pot test; conditions: rated visually after about 3 weeks vs untreated controls, 100% = plants have died
In short: (§1)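 Greenhouse-grown weeds in sandy loam were sprayed post-emergence at the one-leaf stage, 2–3 weeks after sowing. Compounds were formulated as WP or EC in water with 0.5% additive at 600 l/ha, at rates of 20 g/ha or less. Visual rating after about 3 weeks used a scale from 0% (like untreated control) to 100% (plants dead).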

[2] = test system: Amaranthus retroflexus (AMARE); test: as above; conditions: rated visually after about 3 weeks vs untreated controls, 100% = plants have died
In short: as §1

[3] = test system: Avena fatua (AVEFA); test: as above; conditions: 20 g/ha, rated visually after about 3 weeks vs untreated controls, 100% = plants have died
In short: as §1

[4] = test system: Lolium rigidum (LOLRI); test: as above; conditions: dosage 20 g/ha
In short: as §1

[5] = test system: Pharbitis purpurea (PHBPU); test: as above
In short: as §1

[6] = test system: Polygonum convolvulus (POLCO); test: as above
In short: as §1

[7] = test system: Veronica persica (VERPE); test: as above
In short: as §1

[8] = test system: Viola tricolor (VIOTR); test: as above
In short: as §1

[9] = test system: Alopecurus myosuroides (ALOMY); test: Post-emergence herbicidal action, greenhouse pot test (also comparative test C); conditions: rated visually after about 3 weeks vs untreated controls, 100% = plants have died
In short: (§2)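 Visual rating against untreated controls, about 3 weeks after spraying, from 0% (like control) to 100% (plants dead). Weeds were treated at the one-leaf stage, 2–3 weeks after sowing in sandy loam, with aqueous WP/EC spray containing 0.5% additive at 600 l/ha. Doses were ≤20 g/ha, or ≤5 g/ha for comparative test C.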

[10] = test system: Echinochloa crus-galli (ECHCG); test: as above
In short: as §2

[11] = test system: Matricaria inodora (MATIN); test: as above; conditions: dosage 20 g/ha
In short: as §2

[12] = test system: Setaria viridis (SETVI); test: as above
In short: as §2

[13] = test system: Triticum aestivum (TRZAS); test: Post-emergence crop plant compatibility, greenhouse pot test; conditions: vs untreated controls
In short: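 Percent crop injury was judged by eye roughly three weeks after treatment, relative to untreated plants, where 100% meant death. Application was a post-emergence spray at the one-leaf stage, 600 l/ha water volume with 0.5% additive; letters a, b, c denote differing dose rates.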

[14] = test system: Oryza sativa (ORYSA); test: Post-emergence crop plant compatibility, greenhouse pot test (also comparative test C); conditions: vs untreated controls
In short: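 Rice and other crops sprayed post-emergence at one-leaf stage (2–3 weeks after sowing) with WP or EC formulations plus 0.5% additive at 600 l/ha water. Visual rating about 3 weeks later versus untreated controls (100% = dead, 0% = like control); suffixes a–c denote different doses.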

- Post-emergence action against TRZAS (crop plant compatibility) ([13]; 1.25 g/ha): 10%
- Post-emergence action against TRZAS (crop plant compatibility) ([13]; 5 g/ha): 20%
- Post-emergence action against ORYSA (crop plant compatibility) ([14]; 1.25 g/ha): 0%
- Post-emergence action against ORYSA (crop plant compatibility) ([14]; 5 g/ha): 20%
Compound: Cn1c(C(F)(F)F)cc(=O)n(-c2cc(Oc3ccccc3OCC(=O)OCc3cccnn3)c(Br)cc2F)c1=O [I.8-291]
- Post-emergence action at 1.25 g/ha against ABUTH in % ([1]; 1.25 g/ha): 100%
- Post-emergence action at 5 g/ha against ABUTH in % ([1]; 5 g/ha): 100%
- Post-emergence action at 20 g/ha against ABUTH in % ([1]; 20 g/ha): 100%
- Post-emergence action at 1.25 g/ha against AMARE in % ([2]; 1.25 g/ha): 100%
- Post-emergence action at 5 g/ha against AMARE in % ([2]; 5 g/ha): 100%
- Post-emergence action at 20 g/ha against AMARE in % ([2]; 20 g/ha): 100%
- Post-emergence action at 20 g/ha against AVEFA in % [3]: 90%
- Post-emergence action against LOLRI in % [4]: 80%
- Post-emergence action against PHBPU in % ([5]; dosage 1.25 g/ha): 100%
- Post-emergence action against PHBPU in % ([5]; dosage 5 g/ha): 100%
- Post-emergence action against PHBPU in % ([5]; dosage 20 g/ha): 100%
- Post-emergence action against POLCO in % ([6]; dosage 5 g/ha): 100%
- Post-emergence action against POLCO in % ([6]; dosage 20 g/ha): 100%
- Post-emergence action against VERPE ([7]; 1.25 g/ha): 100%
- Post-emergence action against VERPE ([7]; 5 g/ha): 100%
- Post-emergence action against VERPE ([7]; 20 g/ha): 100%
- Post-emergence action against VIOTR ([8]; 1.25 g/ha): 100%
- Post-emergence action against VIOTR ([8]; 5 g/ha): 100%
- Post-emergence action against VIOTR ([8]; 20 g/ha): 100%
- Post-emergence action at 1.25 g/ha against ALOMY in % ([9]; 1.25 g/ha): 80%
- Post-emergence action at 5 g/ha against ALOMY in % ([9]; 5 g/ha): 90%
- Post-emergence action at 20 g/ha against ALOMY in % ([9]; 20 g/ha): 100%
- Post-emergence action at 1.25 g/ha against ECHCG in % ([10]; 1.25 g/ha, rated visually after about 3 weeks vs untreated controls, 100% = plants have died): 100%
- Post-emergence action against ECHCG in % ([10]; dosage 5 g/ha): 100%
- Post-emergence action against ECHCG in % ([10]; dosage 20 g/ha): 100%
- Post-emergence action against MATIN in % [11]: 100%
- Post-emergence action against SETVI ([12]; 20 g/ha): 100%
- Post-emergence action against SETVI in % ([12]; dosage 1.25 g/ha): 100%
- Post-emergence action against SETVI in % ([12]; dosage 5 g/ha): 100%
